Experimental data published in ChEMBL document CHEMBL3862012, “Methylene versus carbonyl bridge in the structure of new tubulin polymerization inhibitors with tricyclic A-rings” (Bioorg Med Chem, 2016).

Experiments:
Ovis aries = species: Ovis aries; assay: Inhibition of sheep brain tubulin polymerization at 100 uM by DAPI staining-based fluorimetric method relative to control
[1] = Cytotoxicity against human 786-0 cells assessed as growth inhibition at 10 uM after 48 hrs by SRB assay relative to control; assay type: functional; conditions: 786-0, 48 h, read-out: GI
[2] = Cytotoxicity against human MALME-3M cells assessed as growth inhibition at 10 uM after 48 hrs by SRB assay relative to control; assay type: functional; conditions: read-out: GI
[3] = Cytotoxicity against human SNB19 cells assessed as growth inhibition at 10 uM after 48 hrs by SRB assay relative to control; assay type: functional; conditions: SNB-19, 48 h, read-out: GI
[4] = Cytotoxicity against human A498 cells assessed as growth inhibition at 10 uM after 48 hrs by SRB assay relative to control; assay type: functional; conditions: A498, 48 h, read-out: GI
[5] = Cytotoxicity against human NCI-H23 cells assessed as growth inhibition at 10 uM after 48 hrs by SRB assay relative to control; assay type: functional; conditions: NCI-H23, 48 h, read-out: GI
[6] = Cytotoxicity against human NCI-H460 cells assessed as growth inhibition at 10 uM after 48 hrs by SRB assay relative to control; assay type: functional; conditions: NCI-H460, 48 h, read-out: GI
[7] = Cytotoxicity against human RPMI8226 cells assessed as growth inhibition at 10 uM after 48 hrs by SRB assay relative to control; assay type: functional; conditions: RPMI-8226, 48 h, read-out: GI
[8] = Cytotoxicity against human NCI-ADR-RES cells assessed as growth inhibition at 10 uM after 48 hrs by SRB assay relative to control; assay type: functional; conditions: read-out: GI
[9] = Cytotoxicity against human SNB75 cells assessed as growth inhibition at 10 uM after 48 hrs by SRB assay relative to control; assay type: functional; conditions: SNB-75, 48 h, read-out: GI
[10] = Cytotoxicity against human SKOV3 cells assessed as growth inhibition at 10 uM after 48 hrs by SRB assay relative to control; assay type: functional; conditions: SK-OV-3, 48 h, read-out: GI
[11] = Cytotoxicity against human HOP62 cells assessed as growth inhibition at 10 uM after 48 hrs by SRB assay relative to control; assay type: functional; conditions: HOP-62, 48 h, read-out: GI
[12] = Cytotoxicity against human SR cells assessed as growth inhibition at 10 uM after 48 hrs by SRB assay relative to control; assay type: functional; conditions: read-out: GI
[13] = Cytotoxicity against human Caki1 cells assessed as growth inhibition at 10 uM after 48 hrs by SRB assay relative to control; assay type: functional; conditions: CAKI-1, 48 h, read-out: GI
[14] = Cytotoxicity against human NCI-H322M cells assessed as growth inhibition at 10 uM after 48 hrs by SRB assay relative to control; assay type: functional; conditions: read-out: GI
[15] = Cytotoxicity against human HT-29 cells assessed as growth inhibition at 10 uM after 48 hrs by SRB assay relative to control; assay type: functional; conditions: HT-29, 48 h, read-out: GI
[16] = Cytotoxicity against human U251 cells assessed as growth inhibition at 10 uM after 48 hrs by SRB assay relative to control; assay type: functional; conditions: U-251, 48 h, read-out: GI
[17] = Cytotoxicity against human A549 cells assessed as growth inhibition at 10 uM after 48 hrs by SRB assay relative to control; assay type: functional; conditions: A549, 48 h, read-out: GI
[18] = Cytotoxicity against human BT549 cells assessed as growth inhibition at 10 uM after 48 hrs by SRB assay relative to control; assay type: functional; conditions: BT-549, 48 h, read-out: GI
[19] = Cytotoxicity against human KM12 cells assessed as growth inhibition at 10 uM after 48 hrs by SRB assay relative to control; assay type: functional; conditions: KM12, 48 h, read-out: GI
[20] = Cytotoxicity against human OVCAR3 cells assessed as growth inhibition at 10 uM after 48 hrs by SRB assay relative to control; assay type: functional; conditions: OVCAR-3, 48 h, read-out: GI
[21] = Cytotoxicity against human RXF393 cells assessed as growth inhibition at 10 uM after 48 hrs by SRB assay relative to control; assay type: functional; conditions: RXF 393, 48 h, read-out: GI
[22] = Cytotoxicity against human LOXIMVI cells assessed as growth inhibition at 10 uM after 48 hrs by SRB assay relative to control; assay type: functional; conditions: LOX IMVI, read-out: GI
[23] = Cytotoxicity against human MDA-MB-435 cells assessed as growth inhibition at 10 uM after 48 hrs by SRB assay relative to control; assay type: functional; conditions: MDA-MB-435, 48 h, read-out: GI
[24] = Cytotoxicity against human COLO205 cells assessed as growth inhibition at 10 uM after 48 hrs by SRB assay relative to control; assay type: functional; conditions: COLO 205, 48 h, read-out: GI
[25] = Cytotoxicity against human TK10 cells assessed as growth inhibition at 10 uM after 48 hrs by SRB assay relative to control; assay type: functional; conditions: TK-10, 48 h, read-out: GI
[26] = Cytotoxicity against human HCT15 cells assessed as growth inhibition at 10 uM after 48 hrs by SRB assay relative to control; assay type: functional; conditions: HCT-15, 48 h, read-out: GI
[27] = Cytotoxicity against human MDA-MB-231 cells assessed as growth inhibition at 10 uM after 48 hrs by SRB assay relative to control; assay type: functional; conditions: MDA-MB-231, 48 h, read-out: GI
[28] = Cytotoxicity against human SF295 cells assessed as growth inhibition at 10 uM after 48 hrs by SRB assay relative to control; assay type: functional; conditions: SF-295, 48 h, read-out: GI
[29] = Cytotoxicity against human DU145 cells assessed as growth inhibition at 10 uM after 48 hrs by SRB assay relative to control; assay type: functional; conditions: DU-145, 48 h, read-out: GI
[30] = Cytotoxicity against human MDA-MB-468 cells assessed as growth inhibition at 10 uM after 48 hrs by SRB assay relative to control; assay type: functional; conditions: MDA-MB-468, 48 h, read-out: GI
[31] = Cytotoxicity against human EKVX cells assessed as growth inhibition at 10 uM after 48 hrs by SRB assay relative to control; assay type: functional; conditions: read-out: GI
[32] = Cytotoxicity against human PC3 cells assessed as growth inhibition at 10 uM after 48 hrs by SRB assay relative to control; assay type: functional; conditions: PC-3, 48 h, read-out: GI
[33] = Cytotoxicity against human CCRF-CEM cells assessed as growth inhibition at 10 uM after 48 hrs by SRB assay relative to control; assay type: functional; conditions: read-out: GI
[34] = Cytotoxicity against human UO31 cells assessed as growth inhibition at 10 uM after 48 hrs by SRB assay relative to control; assay type: functional; conditions: UO-31, 48 h, read-out: GI
[35] = Cytotoxicity against human UACC257 cells assessed as growth inhibition at 10 uM after 48 hrs by SRB assay relative to control; assay type: functional; conditions: UACC-257, 48 h, read-out: GI
[36] = Cytotoxicity against human NCI-H226 cells assessed as growth inhibition at 10 uM after 48 hrs by SRB assay relative to control; assay type: functional; conditions: NCI-H226, 48 h, read-out: GI

SMILES	inhibition (Ovis aries) [%]	inhibition of growth at 10 µM [1] [%]	inhibition of growth at 10 µM [2] [%]	inhibition of growth at 10 µM [3] [%]	inhibition of growth at 10 µM [5] [%]	inhibition of growth at 10 µM [6] [%]	inhibition of growth at 10 µM [7] [%]	inhibition of growth at 10 µM [8] [%]	inhibition of growth at 10 µM [9] [%]	inhibition of growth at 10 µM [10] [%]	inhibition of growth at 10 µM [11] [%]	inhibition of growth at 10 µM [12] [%]	inhibition of growth at 10 µM [13] [%]	inhibition of growth at 10 µM [14] [%]	inhibition of growth at 10 µM [15] [%]	inhibition of growth at 10 µM [16] [%]	inhibition of growth at 10 µM [17] [%]	inhibition of growth at 10 µM [18] [%]	inhibition of growth at 10 µM [19] [%]	inhibition of growth at 10 µM [20] [%]	further results
COc1ccc(CN2c3ccccc3Oc3ccccc32)cc1F	1	21	41	32	28	52	39	59	52	53	48	73	41	8	89	60	56	30	59	57	inhibition of growth at 10 µM [4]: 46%; inhibition of growth at 10 µM [21]: 16%; inhibition of growth at 10 µM [22]: 41%; inhibition of growth at 10 µM [23]: 100%; inhibition of growth at 10 µM [24]: 58%; inhibition of growth at 10 µM [25]: 26%; inhibition of growth at 10 µM [26]: 53%; inhibition of growth at 10 µM [27]: 47%; inhibition of growth at 10 µM [28]: 67%; inhibition of growth at 10 µM [29]: 4%; inhibition of growth at 10 µM [30]: 56%; inhibition of growth at 10 µM [31]: 39%; inhibition of growth at 10 µM [32]: 35%; inhibition of growth at 10 µM [33]: 33%; inhibition of growth at 10 µM [34]: 47%; inhibition of growth at 10 µM [35]: 41%
COc1ccc(CN2c3ccccc3Sc3ccccc32)cc1F	63	78	67	65	69	95	79	97	55	83	80	83	46	57	100	79	78	50	84	100	inhibition of growth at 10 µM [4]: 100%; inhibition of growth at 10 µM [21]: 83%; inhibition of growth at 10 µM [22]: 60%; inhibition of growth at 10 µM [23]: 100%; inhibition of growth at 10 µM [24]: 100%; inhibition of growth at 10 µM [25]: 53%; inhibition of growth at 10 µM [26]: 84%; inhibition of growth at 10 µM [27]: 76%; inhibition of growth at 10 µM [28]: 88%; inhibition of growth at 10 µM [29]: 86%; inhibition of growth at 10 µM [30]: 100%; inhibition of growth at 10 µM [31]: 66%; inhibition of growth at 10 µM [32]: 79%; inhibition of growth at 10 µM [33]: 78%; inhibition of growth at 10 µM [34]: 54%; inhibition of growth at 10 µM [36]: 44%; inhibition of growth at 10 µM [35]: 45%
COc1ccc(CN2c3ccccc3Sc3ccccc32)c(C(F)(F)F)c1	15	58	7	67	56	90	71	77	92	82	59	88	67	51	98	79	67	47	80	94	inhibition of growth at 10 µM [4]: 96%; inhibition of growth at 10 µM [21]: 100%; inhibition of growth at 10 µM [22]: 45%; inhibition of growth at 10 µM [23]: 100%; inhibition of growth at 10 µM [24]: 100%; inhibition of growth at 10 µM [25]: 34%; inhibition of growth at 10 µM [26]: 63%; inhibition of growth at 10 µM [27]: 59%; inhibition of growth at 10 µM [28]: 98%; inhibition of growth at 10 µM [29]: 79%; inhibition of growth at 10 µM [30]: 81%; inhibition of growth at 10 µM [31]: 50%; inhibition of growth at 10 µM [32]: 73%; inhibition of growth at 10 µM [33]: 90%; inhibition of growth at 10 µM [34]: 54%; inhibition of growth at 10 µM [36]: 42%; inhibition of growth at 10 µM [35]: 46%
COc1ccc(CN2c3ccccc3Oc3ccccc32)cc1O	4	57	55	65	66	87	86	75	73	69	58	83	61	44	17	76	62	60	79	81	inhibition of growth at 10 µM [21]: 50%; inhibition of growth at 10 µM [22]: 61%; inhibition of growth at 10 µM [23]: 91%; inhibition of growth at 10 µM [24]: 9%; inhibition of growth at 10 µM [25]: 36%; inhibition of growth at 10 µM [26]: 72%; inhibition of growth at 10 µM [27]: 43%; inhibition of growth at 10 µM [28]: 86%; inhibition of growth at 10 µM [29]: 63%; inhibition of growth at 10 µM [30]: 93%; inhibition of growth at 10 µM [31]: 65%; inhibition of growth at 10 µM [32]: 69%; inhibition of growth at 10 µM [33]: 88%; inhibition of growth at 10 µM [34]: 68%; inhibition of growth at 10 µM [36]: 6%; inhibition of growth at 10 µM [35]: 61%
